Where two headings read alike, the source gives them in different places.

In assay [1] the test system is epidermal ceramide synthesis. The conditions noted are these: SLS-irritated forearm; for values for the ceramide fraction (peak areas) versus test area treated with pure water: 1 min rinse daily, WILCOXON paired differences test.
Procedure: On the first investigation date, test plasters with 60 μl of 1% strength sodium lauryl sulfate (conventional synthetic surfactant frequently used in dermatological irritability research) were stuck onto in each case 3 test sites on the right and left forearm, and the epidermal lipids (baseline values before irritation) were obtained in vivo on the 4th test site on the right and left forearm. After 24 h, the test plasters were removed and all the previously irritated test sites were again irritated with sodium lauryl sulfate with occlusion for 24 h.
The intention of the cumulative irritation with sodium lauryl sulfate for 2×24 h on two consecutive days was initially to induce disturbance of the epidermal barrier, including damage to the epidermal lipid lamellae.
On the first investigation day after the irritation (Monday), the rinsing was preceded by in vivo delipidation in each case of one irritated test site on the forearm to be treated with carbonic acid and that to be treated with pure water.
Pure water was used on the comparison side for reasons of standardization. […] Use of pure water on the comparison side thus makes it possible to state that the effects which are found are attributable exclusively to the carbonic acid.
The eluate of solvent and epidermal lipids obtained in vivo was initially evaporated under nitrogen, and the epidermal lipids were then frozen. In this way, the samples for chromatography were initially collected from all the subjects during the investigations.
For the investigations by thin-layer chromatography, the 8 samples from each subject were thawed and, using different concentrations of the standard mixture, developed and detected on a thin-layer plate.
Determination of the lipid pattern before irritation, immediately after irritation and after use for one week and two weeks of carbonic acid or pure water makes it possible to make detailed statements about the regeneration of the epidermal barrier and any effects of the use of carbonic acid on individual lipid fractions of the epidermal barrier lipids. […]
The test system of assay [2] is irritated skin (epidermal permeability barrier). As for the experimental part:
(§1) For the standardized washing, a normal commercially available shampoo which, according to the manufacturer, contains […] active cleansing substances was diluted with distilled water until it contained 10% active cleansing substances in the solution ready for use.
(§2) Tap water was used for the part-affusions with pure water.
(§3) The carbonated water employed was mechanically produced using an impregnation device in which tap water was supplemented with carbon dioxide under elevated pressure.
(§4) All the part-affusions take place at a temperature of 37° C.
(§5) The test was carried out as unilateral test on 20 test subjects (13 women and 7 men between 23 and 28 years of age). The volunteer test subjects were not subjected to any selection conditions apart from right-handedness. For random distribution, one half of the participants was treated with carbonic acid on the right hand and the other half was treated on the left hand.
(§6) Over a period of 2 weeks, the back of one hand of the test subjects was rinsed with carbonic acid for 1 min once a day. The other was rinsed with pure water as control. At the same time, the backs of both hands were repeatedly irritated by a standardized washing with the shampoo solution twice a day.
(§7) The effect of carbonic acid or pure water on the dermatophysiological parameters of irritated skin was measured using noninvasive dermatophysiological investigation methods.
(§8) The transepidermal water loss (TEWL) as a measure of the permeability barrier function was measured using the evaporimetry method. An EP1 evaporimeter (Servomed & Co., Hasselby, Stockholm, Sweden) was used. The relative skin hydration (RSH) was measured using the capacitance measurement method. A CM 820 PC corneometer (Courage & Khazaka Electronic GmbH, Cologne, Germany) was used. The measurements have been reported as mean of 2 recordings (evaporimetry) or 3 recordings (corneometry).
(§9) All the tests took place in the partially air-conditioned dermatophysiology laboratory at Osnabrück University.

Another assay concerns irritated skin. The following applies: 2 weeks, 1 min rinse once a day, washing with shampoo solution twice a day; backs of hands. As to the method: as §1, §2, §3, §4, §5, §6, §7, §8, §9

Turning to `O=C(O)O` [carbonic acid], the “values for the ceramide fraction (peak areas) after the treatments versus baseline values” in assay [1] (after treatment for one and two weeks) was “significantly higher than the baseline values”. Also, the “values for the ceramide fraction (peak areas) versus test area treated with pure water” value in assay [1] (after treatment for one week) is given as “higher, nearly significantly so (p<0.05)”; in assay [1] (after treatment for two weeks) it was “significantly so (p<0.01)”. Also, the “increase in TEWL (comparison of medians) versus pure water” value in assay [2] (2 weeks, 1 min rinse once a day, washing with shampoo solution twice a day, backs of hands) is listed as “smaller increase in the TEWL”. The “TEWL 30 min after use versus test regions treated with pure water” value in assay [2] (30 min after use, all days with the exception of the first day, P<0.05) is recorded as “significantly lower”. For the same compound, the “TEWL values versus test area treated with pure water” value in assay [2] (on days 3, 6, 7 and 8, values before daily use, WILCOXON paired differences test, P<0.05) is on record as “significantly lower”. In addition, in the assay on irritated skin, the “baseline values of the RSH and RSH 30 min after use versus pure water” value is “higher (in some cases significantly higher)”.

The values above are taken from patent US6348205B1, “Use of carbonic acid for stabilizing or increasing the epidermal ceramide synthesis rate” (Beiersdorf AG, priority 1997, dated 2002).
